In patent publication US10945975B2, “Delaying latency to seizure by combinations of ketone supplements” (priority 2016, dated 2021):
Marks after values point to notes of the source that are not given here.

Experiments:
Assay type in all cases: in vivo, Sprague-Dawley rats
[1] = tested on: rat model of CNS-OT; assay: Seizure severity score in rat model of CNS-OT; settings: 5 g/kg, oral gavage; FIG. 4
Description: (§1) The effect of various ketogenic compositions on latency to seizure and seizure severity was tested in a rat model of CNS-OT. Adult male Sprague-Dawley rats (n=60), 250-300 grams (Harlan) were used in the experiments described herein. Rats were given normal chow and water ad libitum and kept on a 12-hour light/dark cycle. At […], the rats were assigned to one of 5 treatment groups: control (water), 1,3-butanediol acetoacetate diester (KE, 10 g/kg), KE/2 (KE, 5 g/kg), KE+MCT (1,3-butanediol acetoacetate diester+medium chain triglyceride, 5 g/kg+5 g/kg) and KS+MCT (Na^+Ca^2+BHB 5 g/kg+MCT 5 g/kg). Rats received one dose of the designated ketogenic agent or water by oral gavage. Rats were then placed into the hyperbaric chamber 29-30 minutes after treatment, and pressurized to 5 atmospheres as provided below, such that rats were exposed to the hyperbaric conditions at 60 minutes after treatment.
Rats were placed in the hyperbaric chamber, where the rats were allowed 10 minutes to acclimate in air. Then the plexiglass chamber was filled with pure oxygen, and the rats were allowed another 15 minutes to acclimate. The outer chamber was pressurized using air (capacity ˜205 liters) to minimize the risk of an electrical-induced fire. […] Each experiment was visually monitored via a live camera. […]

[2] = Blood glucose levels after removal from the hyperbaric chamber; settings: 10 g/kg, oral gavage; FIG. 7
Description: as §1, with “Rats were then placed into the hyperbaric chamber 29-30 minutes after treatment, and pressurized to 5 atmospheres as provided below, such that rats were exposed to the hyperbaric conditions at 60 minutes after treatment.” left out
(§2) Latency to seizure (LS) was calculated from the moment at which the internal and the external chambers reached 5 ATA until the onset of CNS-OT seizures, as identified above. […]
(§3) Body weights were collected for all rats prior to oral gavage of treatment. Blood concentrations of glucose and beta-hydroxybutyrate (BHB) were determined utilizing a commercially available glucose/ketone monitoring system (Precision Xtra® blood glucose and ketone meter) immediately following removal from the hyperbaric chamber. […]

[3] = Blood beta-hydroxybutyrate (BHB) levels after removal from the hyperbaric chamber; settings: 5 g/kg, oral gavage
Description: as §1, with “Rats were then placed into the hyperbaric chamber 29-30 minutes after treatment, and pressurized to 5 atmospheres as provided below, such that rats were exposed to the hyperbaric conditions at 60 minutes after treatment.” left out
as §2, §3

[4] = tested on: rat model of CNS-OT; assay: Latency to seizure in rat model of CNS-OT (hyperbaric oxygen, 5 ATA); settings: 5 g/kg
Description: as §1
The hyperbaric system consisted of two main elements: 1) a plexiglass chamber (˜3 liter capacity, Diamond Box, Buxco, Electronics Inc., model PLY3114), that housed the rat during the experiment, and 2) a hyperbaric chamber (Reimers System Inc.—7.8 ATA MWP), that contained the plexiglass chamber and functioned as the pressure vessel. Both chambers were connected to an air compressor (oil-less rotary scroll compressor—model DK6086, Powerex).
Rats were placed in the hyperbaric chamber, where the rats were allowed 10 minutes to acclimate in air. Then the plexiglass chamber was filled with pure oxygen, and the rats were allowed another 15 minutes to acclimate. The outer chamber was pressurized using air (capacity ˜205 liters) to minimize the risk of an electrical-induced fire. Next, both chambers were compressed to 5 atmospheres absolute (ATA) at a rate of approximately 1 ATA/min. Each experiment was visually monitored via a live camera.
Latency to seizure (LS) was calculated from the moment at which the internal and the external chambers reached 5 ATA until the onset of CNS-OT seizures, as identified above. After the onset of seizures, the plexiglass chamber was flushed with air to quickly terminate seizure, and both chambers decompressed to sea level. Decompression rate was 1 ATA/min. A small sample of blood was drawn and tested immediately for glucose and beta-hydroxybutyrate levels.

## CC(=O)CC(=O)OCCC(C)OC(=O)CC(C)=O (centres unmarked) [KE, 1,3-butanediol acetoacetate diester]
[1]
  Seizure severity (score 0-3) vs control, in words: some suppression
[2]
  Blood glucose levels (in words): highest blood glucose levels
[3]; FIG. 6
  Blood BHB levels compared to control: about 3 ×
[3]; all collected data
  T-test (p), BHB levels vs control: 0.0012**
[4]; one dose oral gavage, 5 ATA O2, all collected data
  T-test (p), latency to time of seizure vs control: 0.256†
[4]; oral gavage, FIG. 1, all data
  Latency to seizure compared to control: about 2 ×
[4]; oral gavage, outliers excluded (2 standard deviations)
  T-test (p), latency to time of seizure vs control: 0.023*
[4]; outliers removed, FIG. 2
  Latency to seizure compared to control (in words): significantly increased latency to seizure compared to control
